Test results: ChEMBL document CHEMBL1143408 (Antimicrob Agents Chemother, 2007)

What was measured:
[1] = Drug level in healthy human serum at 2000 mg/20 mins infusion; format: ADME, cell-free; conditions: iv, read-out: Drug uptake
Pseudomonas aeruginosa = experiment: Antimicrobial activity against Pseudomonas aeruginosa isolated from cystic fibrosis patient sputum culture
[2] = Drug level in human cystic fibrosis patient serum at 2000 mg/20 mins infusion; format: ADME, cell-free; conditions: iv, read-out: Drug uptake

Structure (SMILES): C[C@H]1[C@H](NC(=O)/C(=N\OC(C)(C)C(=O)O)c2csc(N)n2)C(=O)N1S(=O)(=O)O [AZTREONAM]
- concentration at 20 min [1]: 242 µg/mL
- MIC (Pseudomonas aeruginosa): ≤ 8 ng/mL
- concentration at 20 min [2]: 228 µg/mL
